Where two headings read alike, the source gives them in different places.
Tests used:
[1] = tested on: human platelet-rich plasma; test: U46619-induced platelet aggregation in human platelet-rich plasma; assay type: cell-based; details: U46619 1 μM
Experimental: (§1) Human platelet suspension (PS) was prepared according to the method described previously. Briefly, blood sample, freshly obtained from healthy volunteers who had taken no medications during the preceding 2 weeks, was treated with acid citrate/dextrose (ACD) in a volume ratio of 9:1. After centrifugation at 120 g, 25° C. for 9 min, platelet-rich plasma was transferred into another plastic tube and incubated with heparin (6.4 U/ml) as well as prostaglandin E1 (1 μM). Platelets were spun down by centrifugation at 500 g, 25° C. for 8 min and subsequently washed two times with Tyrode solution (NaH2PO4 0.4 mM; NaCl 136.9 mM; KCl […]; NaHCO3 11.9 mM; CaCl2 2 mM; MgCl2 2.1 mM; glucose 11.1 mM; BSA 3.5 mg/ml; pH 7.35-7.4). The washed platelets were finally suspended in Tyrode's solution and the platelet count was adjusted to 3.75×10^8 platelets/ml. For platelet-rich plasma (PRP) preparation, whole blood was anticoagulated with 1/10 vol of sodium citrate (3.8%, w/v) and centrifuged at 150 g, 25° C. for 9 min.
Platelet aggregation was measured turbidimetrically with a Lumi-aggregometer (Payton Scientific) at 37° C. under stirring condition (900 rpm). […] The extent of platelet aggregation was determined by recording the increase of light transmission relative to that of control (maximal aggregation, as 100%) for 6 min after the addition of inducer. […]

[2] = tested on: mesenteric venules of mice; test: Fluorescein sodium-induced platelet thrombus formation in mesenteric venules of mice; assay type: in vivo; details: for average time to occlusion (TTO): 10 μg/g i.v., mice; for occlusion time: i.v., 5 min after administration
Experimental: A modification of the method was used. Male ICR mice (12-14 g) were anesthetized with sodium pentobarbital (50 mg/kg, i.p.). […] Five min later, various doses of nstpbp5185 (2 and 4 μg/g), aspirin (150 and 250 μg/g), or DMSO (control) were administered by i.v. through other lateral tail vein. The injected volume of the nstpbp5185, aspirin, or DMSO (control) was smaller than 10 μl. A segment of the small intestine with its mesentery attached was exteriorized through a midline incision on the abdominal wall and placed onto a transparent plastic plate for microscopic observation. Frequent rinsing of the mesentery with warm isotonic saline kept at 37° C. was performed to prevent the mesentery from drying out. Microvessels in the mesentery were observed under transillumination from a halogen lamp. Venules with diameters of 30-40 μm were selected to be irradiated to produce a microthrombus. In the epi-illumination system, light from a 100-W mercury lamp was filtered through a filter (B-2A, Nikon, Tokyo, Japan) with a dichromic mirror (DM 510, Nikon). The filtered light eliminated wavelengths below 520 nm irradiated a microvessel through an objective lens (20×). The area of irradiation was about 100 μm in diameter on the focal plane. Ten minutes after administration of the dye, the irradiation by filtered light and a timer were simultaneously started, and thrombus formation was observed on a TV-monitor. Occlusion time was recorded as the time interval for inducing thrombus formation leading to cessation of blood flow.
After giving 50 μg/g fluorescein sodium, the irradiation of mesenteric venules induced thrombus formation which is consist of activated platelets and fibrin clots. […] In the vehicle-treated group, the average TTO was approximately 143.71±4.99 sec (n=17). The group pre-treated with compound 5185 (10 μg/g), the average TTO value was 208.67±6.99 sec (n=12).

[3] = tested on: human platelet suspension; test: ADP-induced platelet aggregation in human platelet suspension; assay type: cell-based
Experimental: as §1
Platelet aggregation was measured turbidimetrically with a Lumi-aggregometer (Payton Scientific) at 37° C. under stirring condition (900 rpm). Platelet suspensions were prewarmed to 37° C. for 2 min in a silicone-treated glass cuvette. Nstpbp5185 was added 3 min before the addition of platelet-aggregation inducers. The extent of platelet aggregation was determined by recording the increase of light transmission relative to that of control (maximal aggregation, as 100%) for 6 min after the addition of inducer. The final volume and platelet count for measuring platelet aggregation were 500 μl and 3×10^8/ml, respectively.

TP receptor = biological target: T1, TP receptor (Homo sapiens, UniProt P21731); test: [3H]SQ-29548 binding to TP receptor of recombinant HEK-293 cells
T1 construct: expressed in transfected cells; host or cells: HEK-293
T1 sequence (P21731 1-343): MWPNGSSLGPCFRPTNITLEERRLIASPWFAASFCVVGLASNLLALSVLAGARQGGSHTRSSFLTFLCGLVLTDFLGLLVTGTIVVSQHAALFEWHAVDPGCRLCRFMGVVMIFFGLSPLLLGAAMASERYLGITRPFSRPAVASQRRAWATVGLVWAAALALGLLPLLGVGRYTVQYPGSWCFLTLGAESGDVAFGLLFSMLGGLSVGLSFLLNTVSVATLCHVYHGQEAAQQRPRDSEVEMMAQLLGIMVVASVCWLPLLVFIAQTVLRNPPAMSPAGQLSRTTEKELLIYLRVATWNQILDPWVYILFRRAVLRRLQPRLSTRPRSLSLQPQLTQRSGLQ
Experimental: Freshly prepared samples of this suspension were incubated with [^3H]SQ-29548 (5 nM final concentration), for 60 min at 25° C. The displacement was initiated by addition of nstpbp5185 dissolved in the same buffer. After incubation (30 min, 25° C.), ice-cold Tris-HCl buffer (10 mM, pH 7.4) was added, the sample was rapidly filtered through a glass fiber filter, and the tube rinsed twice with ice-cold buffer. The filters were then placed in plastic scintillation vials containing an emulsion-type scintillation mixture, and the radioactivity was counted.

mice carotid artery = test: FeCl3-induced thrombus formation in mice carotid artery; assay type: in vivo; details: intravenous administration
Experimental: FIG. 14 The antithrombotic activity of nstpbp5185 in FeCl3-induced thrombi formation in mice carotid artery. (A) Mice were intravenously administered with Heparin (10 or 100 U kg^−1), Aspirin (40 or 80 μg g^−1), or different doses of nstpbp5185 (B). After 5 min, FeCl3 injury was induced by a filter paper saturated with ferric chloride solution (10%). After removal of the paper, carotid blood flow (ml min^−1) was monitored continuously until thromboembolism formation or for 60 min. (C) Mice were orally administered with different doses of Aspirin and nstpbp5185 (D). Both drugs were suspended in 1% CMC. Blood flow monitoring were recorded used analyzed Labchart software (AD instruments). Data are presented as the mean±SEM (n≧3). **P<0.01 and ***P<0.001 as compared with the vehicle control (DMSO).
Mice were intravenously or orally administered with different doses of nstpbp5185.

Row | Structure (SMILES) | IC50 [1] [nM] | average time to occlusion (TTO) [2] [s] | effect on platelet aggregation caused by ADP ([3]; data not shown) | % inhibition ADF ([3]; human platelet suspension, preliminary, compound concentration not given) [%] | Thromboxane receptor (TP receptor; Table III arrows) | IC50 (TP receptor; [3H]SQ-29548 5 nM, read-out: IC50 in displacing 3H-SQ-29548 from TP receptor expressed on HEK-293 cells) [nM] | IC50 (TP receptor; read-out: thromboxane A2 receptor blockade IC50) [nM] | occlusion time within 70 min after administration ([2]; 4 μg g^−1 i.v.) [s] | time until occlusion time returned to the control value ([2]; 4 μg g^−1 i.v.) [min] | occlusion time ([2]; 4 μg/g) [s] | occlusion time ([2]; first dose of 'respectively' (2 μg/g)) [s] | ED50 FeCl3-induced thrombus formation (mice carotid artery)
1 | Cc1ccc(-c2nc3ccc(F)cc3n2Cc2cccc(F)c2)o1 [Ctkf6f2, 6-fluoro-1-(3-fluorobenzyl)-2-(5-methyl-2-furyl)benzimidazole] | 3270 ± 1010 | 267.93 ± 12.64 |  |  |  |  |  |  |  |  |  | 
2 | Cc1ccc(-c2nc3ccccc3n2Cc2ccccc2)o1 [Example 6, 1-Benzyl-2-(5-methyl-2-furyl)benzimidazole] |  | 208.67 ± 6.99 | little effects | 10.9 | ↓ | ~100 | 100 | 157.5 ± 12.5 | ≤ 90 | 170.9 ± 28.0 | 110.5 ± 18.0 | ≈ 2.6 μg g^−1
